Patent US10822325B2, “Human GLUT5 specific inhibitors and methods of treatment” (UNM RAINFOREST INNOVATIONS, priority 2015, dated 2020)
“Also recorded” adds a separate entry of the source.

Target: T1, human GLUT5 (Homo sapiens, UniProt P22732)
T1 construct: Full length DNA was subcloned into pFastBac1 (Life Technologies) vector with a N-terminal hexahistidine tag; hexahistidine (N); made in house; host or cells: Sf21 insect cells (baculovirus, pFastBac1)
T1 sequence (P22732 1-501): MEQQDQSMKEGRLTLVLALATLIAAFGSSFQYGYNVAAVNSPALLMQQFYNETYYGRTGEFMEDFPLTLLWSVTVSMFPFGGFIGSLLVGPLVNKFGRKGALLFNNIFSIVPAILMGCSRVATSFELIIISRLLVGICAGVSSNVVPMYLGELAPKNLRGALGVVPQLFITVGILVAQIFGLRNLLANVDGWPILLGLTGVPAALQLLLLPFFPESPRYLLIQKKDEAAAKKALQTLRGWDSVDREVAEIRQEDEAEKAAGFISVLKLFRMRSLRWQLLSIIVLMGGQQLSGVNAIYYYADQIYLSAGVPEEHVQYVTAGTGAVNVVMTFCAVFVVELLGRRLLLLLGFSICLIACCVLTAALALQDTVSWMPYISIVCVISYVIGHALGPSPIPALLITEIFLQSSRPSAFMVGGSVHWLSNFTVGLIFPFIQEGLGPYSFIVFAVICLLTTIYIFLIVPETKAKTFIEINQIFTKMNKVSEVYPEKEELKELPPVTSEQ
Assay: Fructose entrance counter-flow transport in GLUT5 proteoliposomes
Format: biochemical
Details: for effect on GLUT5 fructose transport: 2 mM compound, one minute
Description: cDNAs of GLUT1, 3, 4 and 5 were purchased from Open Biosystems (GE Healthcare). cDNAs of GLUT2 was a gift from Prof. Graeme Bell at University of Chicago. Full length DNA was subcloned into pFastBac1 (Life Technologies) vector with a N-terminal hexahistidine tag. Bacmids were generated in DH10Bac E. coli cells (Life Technologies). Baculoviruses were produced using Cellfectin II Reagent and amplified in Sf21 insect cells (Life Technologies). Cells were maintained at 26° C., and P1 (10^6 pfu/mL) was collected from infected cells after 72 hours. SF21 cells were propagated in HyClone SFX-Insect media (GE Healthcare), supplemented with 5% fetal bovine serum (Biowest), 4.8 mM glutamine, antibiotics (100 units/mL Penicillin G and 100 μg/mL streptomycin sulfate) and amphotericin B (2.5 μg/mL). For recombinant protein expression, SF21 cells in suspension culture at 2×10^6 cells/ml were infected with P3 viral stock (10^8 pfu/mL), at an MOI of 1.0 pfu/cell. Four days after viral infection, cells from 1 L culture were collected by centrifugation at 2,000 g and 25 °C. The cell pellet was resuspended in 120 mL of 50 mM sodium phosphate (NaPi) (pH 7.5), 5% (v/v) glycerol, 200 mM sodium chloride (buffer A), with protease inhibitors (1 mM AEBSF, 10 μM E-64, 10 μM pepstatin A, 1 μM Aprotinin, 20 μM Bestatin, 20 μM Leupeptin), at 4° C., and disrupted by sonication (Branson Ultrasonic). n-Dodecyl-β-D-maltopyranoside (DDM, EMD chemicals) was added to a final concentration of 1% (w/v) in the broken cell solution, and the mixture was incubated at 4° C. with stirring, for 4 hours. The solubilized protein solution was clarified by ultracentrifugation at 200,000 g and 4° C. for 1 hour, and the supernatant was loaded onto the Ni-NTA resin (Novagen) and washed with buffer containing 50 mM NaPi (pH 7.5), 500 mM NaCl, 5-20 mM imidazole, 5% (v/v) glycerol and 0.05% (w/v) DDM. GLUT1 (or GLUT2-5, wild-type or mutants) was eluted with buffer A, containing 300 mM imidazole and 0.05% DDM (w/v). To generate DNA for mutant proteins, site-directed mutagenesis was performed on the pFastBac1 plasmid constructs of wild-type proteins and verified by DNA sequencing^37. Mutant proteins were expressed and purified in the same manner as wild-type proteins with no modifications.
Proteoliposomes were generated according to the protocol of^16,38 with minor modifications. Liposomes were made from a 95%/5% mix of soy phosphatidylcholine and cholesterol (Avanti Polar Lipids). Prepared liposomes were destabilized with 4 mM Triton X-100 and mixed with purified protein in a 100:1 (w/w) ratio in 100 mM KPi (pH 7.5), 20% (v/v) glycerol, 200 mM glucose for GLUT1-4 and GLUT1F379H or fructose for GLUT5 (wild-type and H387F mutant) and GLUT2. Detergent was removed by several additions of SM2 BioBeads (BioRad) and incubated overnight at 4° C. […]
For the entrance counterflow transport in proteoliposomes, the assay was started by the addition of 5 μL proteoliposomes solution (OD600 nm ˜30) to 200 μL, assay solution, containing 10 μM ^14C-radiolabeled glucose (for GLUT1 wild-type or F379H mutant and GLUT2-4) or fructose (for GLUT5 wild-type or H387F mutant and GLUT2) (Moravek Biochemicals) in 100 mM KPi buffer at pH 7.5. After one minute (or different specified time points when the time-dependent counter-flow transport activity was measured), the transport was stopped with ice-chilled quench buffer [0.1 M KPi (pH 5.5) and 0.1 M lithium chloride]. […]

| SMILES | inhibitory activity against GLUT5 in screen of 175 purchased compounds (1 mM compound, fructose transport in proteoliposomes) | effect on GLUT5 fructose transport (proteoliposomes) | IC50 (proteoliposomes, 10 μM C14-fructose, measured one minute after transport initiation, read-out: IC50 of inhibition of GLUT5 fructose transport) |
| --- | --- | --- | --- |
| CS(=O)(=O)c1ccc(Nc2ccc3c(c2)OCO3)c([N+](=O)[O-])c1 [MSNBA, N-[4-(methylsulfonyl)-2-nitrophenyl]-1,3-benzodioxol-5-amine] | inhibitor of GLUT5; also recorded: inhibitory activity | completely abolished | 100 ± 30 µM |
| C=C1[C@@H](C)[C@H]2[C@H](Cc3ccccc3)NC(=O)[C@]23OC(=O)/C=C/[C@H](O)CCC[C@@H](C)C/C=C/[C@H]3[C@@H]1O [cytochalasin B, reference compound] | – | did not alter | – |
| O=C(CCc1ccc(O)cc1)c1c(O)cc(O)cc1O [phloretin, reference compound] | – | did not alter | – |
